Patent US20120258971A1, “THERAPEUTIC AGENT FOR CHRONIC PAIN” (OTSUKA PHARMACEUTICAL CO., LTD., priority 2009, published 2012)
Where a name gives a salt, the structure may show the parent alone.

Tested on: chronic occipital-cervical pain
Assay: Pain intensity (numerical rating scale, NRS) in a chronic pain patient during drug treatment
Type: in vivo, human
Settings: for Effect on pain of the chronic pain patient (in words): single chronic pain patient, oral administration, overall conclusion
Method: Morphine, fluvoxamine, aripiprazole, and other drugs were administered for about 11 months to a patient who was diagnosed as a chronic pain sufferer with chronic occipital-cervical pain that had continued for ten years or more. The intensity of the pain in the patients' occipital-cervical region (neck) was evaluated over time.
The intensity of pain was evaluated using a numerical rating scale (NRS) in which pain was orally reported on an 11-step scale (0 to 10). This evaluation method numerically expresses (quantifies) the degree of pain on a scale of 0 (no pain) to 10 (worst conceivable pain). This method provides a good reflection of the degree of pain of a patient before and after treatment.
From the 4th week of the first month, in addition to morphine, oral administration of fluvoxamine (Depromel tablets; produced by Meiji Seika Pharma Co., Ltd.) in a dose of 50 mg/day was started.
Then, from the 4th week of the 4th month, aripiprazole (Abilify tablets; produced by Otsuka Pharmaceutical Co., Ltd.) was orally administered in a dose of 3 mg/day. […] Furthermore, even when the administration of morphine was stopped from the 8th month, the NRS value remained at 0.
Thereafter, when the dose of aripiprazole (Abilify tablets; produced by Otsuka Pharmaceutical Co., Ltd.) was increased to 9 mg/day after the 4th week of the 9th month, and further increased to 12 mg/day after the 4th week of the 10th month, the NRS value was 0, and no change was observed.

SMILES | NRS value (aripiprazole 3 mg/day oral from 4th week of 4th month, first week of the 5th month) | NRS value (aripiprazole 3 mg/day oral, from the second week of the 6th month) | NRS value (aripiprazole increased to 9 mg/day (after 4th week of 9th month) and 12 mg/day (after 4th week of 10th month)) | NRS value (aripiprazole, after morphine was stopped from the 8th month) | Effect on pain of the chronic pain patient (in words)
O=C1CCc2ccc(OCCCCN3CCN(c4cccc(Cl)c4Cl)CC3)cc2N1 [aripiprazole, 7-{4-[4-(2,3-dichlorophenyl)-1-piperazinyl]butoxy}-3,4-dihydrocarbostyril] | 1 | 0 | 0 | 0 | could dramatically reduce the pain
COCCCC/C(=N\OCCN)c1ccc(C(F)(F)F)cc1 [fluvoxamine] | – | – | – | – | the pain was not relieved at all
CN1CC[C@]23c4c5ccc(O)c4O[C@H]2[C@@H](O)C=C[C@H]3[C@H]1C5 [morphine hydrochloride tablets] | – | – | – | – | the pain was not relieved
